Converted amounts (≈) assume the structure as drawn.
What was measured:
Mycobacterium kansasii [1] = experiment: Antimycobacterial activity against Mycobacterium kansasii CNCTC My 6509/96 after 21 days by microdilution method; type: functional; conditions: CNCTC My 6509/96, 504 h
[2] = Cytotoxicity against human HuH7 cells assessed as cell viability after 24 hrs by MTS assay; type: cell-based; conditions: Huh-7, 24 h
[3] = Cytotoxicity against human HuH7 cells assessed as cell viability after 48 hrs by MTS assay; type: cell-based; conditions: Huh-7, 48 h
HeLa = experiment: Cytotoxicity against human HeLa cells assessed as cell viability after 24 hrs by MTS assay; type: cell-based
[4] = Cytotoxicity against MDCK2-MDR1 cells assessed as cell viability after 24 hrs by MTS assay; type: ADME, cell-based; conditions: Canis lupus familiaris, MDCK-II
[5] = Cytotoxicity against human HuH7 cells assessed as cell viability at 20 uM after 24 hrs by MTS assay; type: cell-based, Huh-7; conditions: read-out: Activity
[6] = Cytotoxicity against human HuH7 cells assessed as cell viability at 20 uM after 48 hrs by MTS assay; type: cell-based, Huh-7; conditions: read-out: Activity
[7] = Cytotoxicity against human HeLa cells assessed as cell viability at 20 uM after 24 hrs by MTS assay; type: cell-based; conditions: read-out: Activity
[8] = Cytotoxicity against human HeLa cells assessed as cell viability at 20 uM after 48 hrs by MTS assay; type: cell-based; conditions: read-out: Activity
[9] = Cytotoxicity against MDCK2-MDR1 cells assessed as cell viability at 20 uM after 24 hrs by MTS assay; type: ADME, cell-based, Canis lupus familiaris, MDCK-II; conditions: dog, read-out: Activity
[10] = Cytotoxicity against MDCK2-MDR1 cells assessed as cell viability at 20 uM after 48 hrs by MTS assay; type: ADME, cell-based, Canis lupus familiaris, MDCK-II; conditions: dog, read-out: Activity
Salmonella typhimurium [11] = experiment: Mutagenic activity in Salmonella typhimurium TA100 assessed as reverse mutation at 30 uM by Ames test; type: toxicity, organism-based; conditions: salmonella enterica subsp. enterica serovar typhimurium
Salmonella typhimurium [12] = experiment: Mutagenic activity in Salmonella typhimurium TA98 assessed as reverse mutation at 30 uM by Ames test; type: toxicity, organism-based; conditions: salmonella enterica subsp. enterica serovar typhimurium
Candida albicans = experiment: Antifungal activity against Candida albicans ATCC 44859 after 24 to 48 hrs by broth microdilution method; type: functional
Candida tropicalis = experiment: Antifungal activity against Candida tropicalis 156 after 24 to 48 hrs by broth microdilution method; type: functional
Pichia kudriavzevii = experiment: Antifungal activity against Candida krusei E28 after 24 to 48 hrs by broth microdilution method; type: functional
Nakaseomyces glabratus = experiment: Antifungal activity against Candida glabrata 20/I after 24 to 48 hrs by broth microdilution method; type: functional
Trichosporon asahii = experiment: Antifungal activity against Trichosporon asahii 1188 after 24 to 48 hrs by broth microdilution method; type: functional
Aspergillus fumigatus = experiment: Antifungal activity against Aspergillus fumigatus 231 after 24 to 48 hrs by broth microdilution method; type: functional
Lichtheimia corymbifera = experiment: Antifungal activity against Absidia corymbifera 272 after 24 to 48 hrs by broth microdilution method; type: functional
[13] = tested on: Trichophyton mentagrophytes; experiment: Antifungal activity against Trichophyton mentagrophytes 445 after 72 to 120 hrs by broth microdilution method; type: functional
Staphylococcus aureus [14] = experiment: Antibacterial activity against Staphylococcus aureus ATCC 6538 after 24 to 48 hrs by broth microdilution method; type: functional
Staphylococcus aureus [15] = experiment: Antibacterial activity against methicillin-resistant Staphylococcus aureus H 5996/08 after 24 to 48 hrs by broth microdilution method; type: functional
[16] = tested on: Staphylococcus epidermidis; experiment: Antibacterial activity against Staphylococcus epidermidis H 6966/08 after 24 to 48 hrs by broth microdilution method; type: functional
Enterococcus faecalis = experiment: Antibacterial activity against Enterococcus faecalis J 14365/08 after 24 to 48 hrs by broth microdilution method; type: functional
Escherichia coli = experiment: Antibacterial activity against Escherichia coli ATCC 8739 after 24 to 48 hrs by broth microdilution method; type: functional
Klebsiella pneumoniae [17] = experiment: Antibacterial activity against Klebsiella pneumoniae D 11750/08 after 24 to 48 hrs by broth microdilution method; type: functional
Klebsiella pneumoniae [18] = experiment: Antibacterial activity against ESBL producing Klebsiella pneumoniae J 14368/08 after 24 to 48 hrs by broth microdilution method; type: functional
Pseudomonas aeruginosa = experiment: Antibacterial activity against Pseudomonas aeruginosa ATCC 9027 after 24 to 48 hrs by broth microdilution method; type: functional
[19] = tested on: Mycobacterium tuberculosis; experiment: Antimycobacterial activity against Mycobacterium tuberculosis CNCTC My 331/88 after 14 days by microdilution method; type: functional; conditions: CNCTC My 331/88, 336 h
Mycobacterium avium [20] = experiment: Antimycobacterial activity against Mycobacterium avium CNCTC My 330/88 after 14 days by microdilution method; type: functional; conditions: CNCTC My 330/88, 336 h
Mycobacterium kansasii [21] = experiment: Antimycobacterial activity against Mycobacterium kansasii CNCTC My 235/80 after 14 days by microdilution method; type: functional; conditions: CNCTC My 235/80, 336 h
Mycobacterium kansasii [22] = experiment: Antimycobacterial activity against Mycobacterium kansasii CNCTC My 6509/96 after 14 days by microdilution method; type: functional; conditions: CNCTC My 6509/96, 336 h
[23] = tested on: Mycobacterium tuberculosis; experiment: Antimycobacterial activity against Mycobacterium tuberculosis CNCTC My 331/88 after 21 days by microdilution method; type: functional; conditions: CNCTC My 331/88, 504 h
Mycobacterium avium [24] = experiment: Antimycobacterial activity against Mycobacterium avium CNCTC My 330/88 after 21 days by microdilution method; type: functional; conditions: CNCTC My 330/88, 504 h
Mycobacterium kansasii [25] = experiment: Antimycobacterial activity against Mycobacterium kansasii CNCTC My 235/80 after 21 days by microdilution method; type: functional; conditions: CNCTC My 235/80, 504 h
Mycobacterium kansasii [26] = experiment: Antimycobacterial activity against Mycobacterium kansasii CNCTC My 235/80 after 7 days by microdilution method; type: functional; conditions: CNCTC My 235/80, 168 h
Mycobacterium kansasii [27] = experiment: Antimycobacterial activity against Mycobacterium kansasii CNCTC My 6509/96 after 7 days by microdilution method; type: functional; conditions: CNCTC My 6509/96, 168 h
Hepatocyte = experiment: Cytotoxicity against primary human hepatocytes assessed as cell viability after 48 hrs by MTS assay; type: cell-based
[28] = Cytotoxicity against primary human hepatocytes assessed as cell viability at 20 uM after 48 hrs by MTS assay; type: cell-based, Hepatocyte; conditions: read-out: Activity

SMILES | MIC99 (Mycobacterium kansasii [1]) | IC50 [2] | IC50 (HeLa) | IC50 [4] | viability at 24 h, 20 µM [5] | viability at 48 h, 20 µM [6] | viability at 24 h, 20 µM [7] | viability at 48 h, 20 µM [8] | viability at 24 h, 20 µM [9] | viability at 48 h, 20 µM [10] | MIC80 (Candida albicans) | MIC80 (Candida tropicalis) | MIC80 (Pichia kudriavzevii) | MIC80 (Nakaseomyces glabratus) | MIC80 (Trichosporon asahii) | MIC50 (Aspergillus fumigatus) | MIC50 (Lichtheimia corymbifera) | MIC50 [13] | MIC95 (Staphylococcus aureus [14]) | MIC95 (Staphylococcus aureus [15]) | also measured
O=[N+]([O-])c1cc(CSc2nnc(-c3ccccc3)o2)cc([N+](=O)[O-])c1 | 2 µM (≈ 0.717 µg/mL) | > 20 µM | > 20 µM | > 20 µM | 99.3% | 73.8% | 88.3% | 33.2% | 72.6% | 42.4% | > 125 µM | > 125 µM | > 125 µM | > 125 µM | > 125 µM | > 125 µM | > 125 µM | > 125 µM | > 125 µM | > 125 µM | IC50 [3]: > 20 µM; Activity (Salmonella typhimurium [11]): Non-toxic; Activity (Salmonella typhimurium [12]): Toxic; MIC95 [16]: > 125 µM; MIC95 (Enterococcus faecalis): > 125 µM; MIC95 (Escherichia coli): > 125 µM; MIC95 (Klebsiella pneumoniae [17]): > 125 µM; MIC95 (Klebsiella pneumoniae [18]): > 125 µM; MIC95 (Pseudomonas aeruginosa): > 125 µM
O=[N+]([O-])c1cc(CSc2nnc(-c3ccc(Cl)cc3Cl)o2)cc([N+](=O)[O-])c1 | 0.5 µM (≈ 0.214 µg/mL) | > 20 µM | > 20 µM | > 20 µM | 95.7% | 37.7% | 76.4% | 39.9% | 106% | 27.9% | > 125 µM | > 125 µM | > 125 µM | > 125 µM | > 125 µM | > 125 µM | > 125 µM | > 125 µM | > 125 µM | > 125 µM | MIC99 [19]: ≤ 0.03 µM; MIC99 (Mycobacterium avium [20]): 16 µM (≈ 6.84 µg/mL); MIC99 (Mycobacterium kansasii [21]): 0.5 µM (≈ 0.214 µg/mL); MIC99 (Mycobacterium kansasii [22]): 0.25 µM (≈ 0.107 µg/mL); MIC99 [23]: 0.06 µM (≈ 0.0256 µg/mL); MIC99 (Mycobacterium avium [24]): 32 µM (≈ 13.7 µg/mL); MIC99 (Mycobacterium kansasii [25]): 0.5 µM (≈ 0.214 µg/mL); MIC99 (Mycobacterium kansasii [26]): 0.125 µM (≈ 0.0534 µg/mL); MIC99 (Mycobacterium kansasii [27]): 0.125 µM (≈ 0.0534 µg/mL); IC50 (Hepatocyte): > 20 µM; viability at 48 h, 20 µM [28]: 81.1%; MIC95 [16]: > 125 µM; MIC95 (Enterococcus faecalis): > 125 µM; MIC95 (Escherichia coli): > 125 µM; MIC95 (Klebsiella pneumoniae [17]): > 125 µM; MIC95 (Klebsiella pneumoniae [18]): > 125 µM; MIC95 (Pseudomonas aeruginosa): > 125 µM
